We go through 38 compounds from patent US8754073B2, “Substituted piperazino-dihydrothienopyrimidines” (Boehringer Ingelheim International GmbH, priority 2007, dated 2014).

Each structure is given as a SMILES string.

By inhibition is commonly meant the drop in the measured response relative to a control, in per cent. Read a high inhibition as a strong effect.

The target of one assay is PDE4B (Homo sapiens, UniProt Q07343). Kind of assay: Scintillation Proximity Assay (SPA) of PDE4B enzyme activity ([H3]-cAMP cleavage). Type of assay: biochemical. To be noted: test substance 1 μM; one-hour incubation of [H3]-cAMP with PDE4B enzyme at 30° C. The gist of the method: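 Percent inhibition at 1 μM compound, measured against an uninhibited reaction. PDE4B hydrolysed tritiated cAMP for one hour at 30 °C, then scintillator beads were added to capture [H3]-5′-AMP. Light events were counted after 45 min bead settling.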
Sequence of PDE4B (Q07343 whole entry, species assumed): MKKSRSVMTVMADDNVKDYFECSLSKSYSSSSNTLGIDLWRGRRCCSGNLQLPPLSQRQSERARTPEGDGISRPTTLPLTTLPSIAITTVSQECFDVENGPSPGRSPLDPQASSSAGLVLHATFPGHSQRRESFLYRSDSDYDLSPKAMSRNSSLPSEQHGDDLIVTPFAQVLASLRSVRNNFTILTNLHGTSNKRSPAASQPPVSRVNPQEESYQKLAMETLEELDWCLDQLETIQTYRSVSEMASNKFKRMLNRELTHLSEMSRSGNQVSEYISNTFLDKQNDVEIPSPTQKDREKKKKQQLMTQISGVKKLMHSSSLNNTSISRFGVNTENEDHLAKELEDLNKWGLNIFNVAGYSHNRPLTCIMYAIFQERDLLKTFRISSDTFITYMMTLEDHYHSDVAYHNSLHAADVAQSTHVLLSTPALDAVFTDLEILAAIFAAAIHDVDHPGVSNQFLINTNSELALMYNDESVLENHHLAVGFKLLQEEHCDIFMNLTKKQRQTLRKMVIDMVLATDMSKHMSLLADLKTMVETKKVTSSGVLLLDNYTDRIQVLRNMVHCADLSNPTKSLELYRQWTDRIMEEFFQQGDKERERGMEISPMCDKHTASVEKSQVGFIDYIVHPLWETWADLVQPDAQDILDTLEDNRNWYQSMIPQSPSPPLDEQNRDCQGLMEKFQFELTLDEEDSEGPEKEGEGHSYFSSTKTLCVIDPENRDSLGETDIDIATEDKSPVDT
(SPA uses beads or plates that emit light when radiolabelled molecules are held near them.)
`CC(C)[C@H](CO)Nc1nc(N2CCC(c3nnc(-c4ccc(F)cc4)o3)CC2)nc2c1[S+]([O-])CC2` (some centres unmarked) [Example 159] registered an inhibition at 1 µM of 94%.
The same measure, in the same setting: next, `[O-][S+]1CCc2nc(N3CCC(c4cc(Cl)cc(Cl)c4)CC3)nc(NC3CCOCC3)c21` (centres unmarked) [Example 97, {2-[4-(3,5-Dichlorophenyl)-Piperidin-1-Yl]-5-Oxo-6,7-Dihydro-5H-5λ^4-Thieno[3,2-d]Pyrimidin-4-Yl}-(Tetrahydropyran-4-Yl)-Amine]: 93%; `COC(=O)c1cccc(C2CCN(c3nc4c(c(NC5(CO)CC5)n3)[S+]([O-])CC4)CC2)c1` (centres unmarked) [Example 104]: 95%.
The same measure, in the same setting: to `[O-][S+]1CCc2nc(N3CCC(c4nc5ccccc5o4)CC3)nc(NC3(CO)CC3)c21` (centres unmarked) [Example 98, {1-[2-(4-Benzoxazol-2-Yl-Piperidin-1-Yl)-5-Oxo-6,7-Dihydro-5H-5λ^4-Thieno[3,2-d]Pyrimidin-4-Ylamino]-Cyclopropyl}-Methanol] belongs 97%; to `CC(C)c1noc(C2CCN(c3nc4c(c(NC5CCOCC5)n3)[S+]([O-])CC4)CC2)n1` (centres unmarked) [Example 129], 93%.
Same read-out and setting: to `[O-][S+]1CCc2nc(N3CCC(c4ccc5ccccc5c4)CC3)nc(NC3(CO)CC3)c21` (centres unmarked) [Example 111] belongs 96%; to `[O-][S+]1CCc2nc(N3CCC(c4nnc(-c5ccc(F)cc5)o4)CC3)nc(Nc3cccc(F)c3)c21` (centres unmarked) [Example 143], 95%.
`[O-][S+]1CCc2nc(N3CCC(c4nc(-c5cccnc5)no4)CC3)nc(NC3(CO)CC3)c21` (centres unmarked) [Example 115] registered an inhibition at 1 µM of 94%.
Same read-out and setting: to `CN1C[C@@H](Nc2nc(N3CCC(c4nc5ccccc5o4)CC3)nc3c2[S+]([O-])CC3)CCC1=O` (stereo partly drawn) [Example 100, (S)-5-[2-(4-Benzoxazol-2-Yl-Piperidin-1-Yl)-5-Oxo-6,7-Dihydro-5H-5λ^4-Thieno[3,2-d]Pyrimidin-4-Ylamino]-1-Methylpiperidin-2-One] belongs 97%; to `CN1C[C@@H](Nc2nc(N3CCC(c4ccncc4)CC3)nc3c2[S+]([O-])CC3)CCC1=O` (some centres unmarked) [Example 48], 96%.
`CN1C[C@@H](Nc2nc(N3CCC(c4c[nH]c5ccccc45)CC3)nc3c2[S+]([O-])CC3)CCC1=O` (some centres unmarked) [Example 41] displayed an inhibition at 1 µM of 97%.
Same read-out and setting: next, `CN1C[C@@H](Nc2nc(N3CCC4(CC3)OC(=O)Nc3ccccc34)nc3c2[S+]([O-])CC3)CCC1=O` (some centres unmarked) [Example 50]: 95%.
Same read-out and setting: next, `[O-][S+]1CCc2nc(N3CCC(c4nnc5ccccn45)CC3)nc(Nc3cccc(F)c3)c21` (centres unmarked) [Example 139]: 94%; `COc1ccc(C2CCN(c3nc4c(c(N[C@@H](CO)C(C)C)n3)[S+]([O-])CC4)CC2)cc1` (some centres unmarked) [Example 148]: 93%; `[O-][S+]1CCc2nc(N3CCC(c4c[nH]c5ccccc45)CC3)nc(Nc3cccc(F)c3)c21` (centres unmarked) [Example 71]: 96%.
Still for that read-out and setting: next, `CN1C(=O)Nc2ccccc2C12CCN(c1nc3c(c(NC4CCOCC4)n1)[S+]([O-])CC3)CC2` (centres unmarked) [Example 58, 3′-Methyl-1-(4-(Tetrahydro-2H-Pyran-4-Ylamino)-5-Oxo-6,7-Dihydro-5H-5λ^4-Thieno[3,2-d]Pyrimidin-2-Yl)-1′H-Spiro[Piperidin-4,4′-Quinazolin]-2′(3′H)-One]: 88%; `[O-][S+]1CCc2nc(N3CCC(c4ccncc4)CC3)nc(NC3CCOCC3)c21` (centres unmarked) [Example 63]: 92%; `[O-][S+]1CCc2nc(N3CCC4(CC3)OCc3ccccc34)nc(Nc3cccc(F)c3)c21` (centres unmarked) [Example 140]: 83%.
`CN1C[C@@H](Nc2nc(N3CCC(c4ccc(C#N)cc4)CC3)nc3c2[S+]([O-])CC3)CCC1=O` (some centres unmarked) [Example 49] yielded an inhibition at 1 µM of 96%.
Still for that read-out and setting: next, `CC(C)[C@H](CO)Nc1nc(N2CCC(c3nc4cc(Cl)ccc4s3)CC2)nc2c1[S+]([O-])CC2` (some centres unmarked) [Example 149]: 94%; `Cc1noc(C2CCN(c3nc4c(c(N[C@@H](CO)C(C)C)n3)[S+]([O-])CC4)CC2)n1` (some centres unmarked) [Example 23]: 85%.

Staying with this assay, now noted: test substance 1 μM; one-hour incubation with [H3]-cAMP at 30° C.
`[O-][S+]1CCc2nc(N3CCC(c4ccccc4)CC3)nc(NC3(CO)CC3)c21` (centres unmarked) [Example 164]: the inhibition at 1 µM amounted to 92%.
Same read-out and setting: next, `CC(C)C(=O)N1CCc2ccc(OC3CCN(c4nc5c(c(NC6CCOCC6)n4)[S+]([O-])CC5)CC3)cc2CC1` (centres unmarked) [Example 215]: 79%.
The same measure, in the same setting: to `CC(C)[C@H](CO)Nc1nc(N2CCC(COCc3ccccc3)(c3ccc(Cl)cc3)CC2)nc2c1[S+]([O-])CC2` (some centres unmarked) [Example 307] belongs 89%; to `CC(C)(NC(=O)c1ccc(OC2CCN(c3nc4c(c(NC5CCOCC5)n3)[S+]([O-])CC4)CC2)cc1)c1ccncc1` (centres unmarked) [Example 236], 95%; to `O=C(c1ccc(OC2CCN(c3nc4c(c(NC5CCOCC5)n3)[S+]([O-])CC4)CC2)cc1)N1CCOCC1` (centres unmarked) [Example 240], 94%.
As to `[O-][S+]1CCc2nc(N3CCC(c4nc(-c5ccccc5)c(-c5ccccc5)o4)CC3)nc(NC3(CO)CC3)c21` (centres unmarked) [Example 280], the inhibition at 1 µM worked out at 95%.
The same measure, in the same setting: to `[O-][S+]1CCc2nc(N3CCC(CO)(c4ccc(Cl)cc4)CC3)nc(NC3CCOCC3)c21` (centres unmarked) [Example 281] belongs 87%.
On the same count and under the same terms, next, `CC(C)[C@H](CO)Nc1nc(N2CCC(Oc3ccc(F)cc3)CC2)nc2c1[S+]([O-])CC2` (some centres unmarked) [Example 168]: 89%; `CC(C)c1noc(C2CCN(c3nc4c(c(N[C@H]5CCC(=O)N(C)C5)n3)[S+]([O-])CC4)CC2)n1` (some centres unmarked) [Example 189]: 97%; `[O-][S+]1CCc2nc(N3CCC(c4nc(-c5ccccc5)no4)CC3)nc(NC3(CO)CC3)c21` (centres unmarked) [Example 311]: 91%.
On the same count and under the same terms, to `NC1CC1Nc1nc(N2CCC(c3ccc(Cl)cc3)CC2)nc2c1[S+]([O-])CC2` (centres unmarked) [Example 233, N-{2-[4-(4-Chlorophenyl)-Piperidin-1-Yl]-5-Oxo-6,7-Dihydro-5H-5λ^4-Thieno[3,2-d]Pyrimidin-4-Yl}-Cyclopropan-1,2-Diamine] belongs 93%; to `CN(CC1(c2ccccc2)CCN(c2nc3c(c(NC4(CO)CC4)n2)[S+]([O-])CC3)CC1)S(C)(=O)=O` (centres unmarked) [Example 330], 92%.
Compound `[O-][S+]1CCc2nc(N3CCC(Oc4ccc(F)cc4)CC3)nc(Nc3cccc(F)c3)c21` (centres unmarked) [Example 165] showed an inhibition at 1 µM of 92%.
Same read-out and setting: to `Cn1cc(C2CCN(c3nc4c(c(NC5CCOCC5)n3)[S+]([O-])CC4)CC2)c2ccccc21` (centres unmarked) [Example 193] belongs 96%.
The same measure, in the same setting: next, `COCC1(c2ccc(Cl)cc2)CCN(c2nc3c(c(Nc4cccc(F)c4)n2)[S+]([O-])CC3)CC1` (centres unmarked) [Example 305]: 91%.
The same measure, in the same setting: next, `Cc1oc(C2CCN(c3nc4c(c(NC5CCOCC5)n3)[S+]([O-])CC4)CC2)nc1-c1ccccc1` (centres unmarked) [Example 276]: 95%; `CN1CCC(N(C)C(=O)c2cccc(C3CCN(c4nc5c(c(NC6CCOCC6)n4)[S+]([O-])CC5)CC3)c2)CC1` (centres unmarked) [Example 248]: 88%.
